Assay results as given in article PMC5847048 (Psychopharmacology, 2017).

Experiments:
rats = system: rats; parameters: method as in Bretin et al. [2017]; conditions: acute administration, ref Bretin et al. [2017]; cited from earlier work
normal adult mice = system: normal adult mice; parameters: method as in Bretin et al. [2017]; conditions: acute administration, ref Bretin et al. [2017]; cited from earlier work
[1] = system: middle-aged mice (14–15 months old); experiment: Contextual serial discrimination (CSD) task; type: in vivo, mouse; conditions: for Strength of contextual memory (SCM) score, first discrimination D1: Experiment 1 study A, middle-aged mice, vehicle − 21.66%; for SCM score (LSMeans ± SE LSMeans): Experiment 2, 9 days, D1
Experimental: Treatments were administered per os daily for nine consecutive days for studies involving the CSD and SA tasks. The 8th and the 9th oral administrations were given 60 min before acquisition and test phases in the CSD task, or before the training and the test sessions in the SA task.
The studies were carried out on mice according to the procedure described in full by Celerier et al. ([2004]) and Tronche et al. ([2010]) (Fig.1). Briefly, the mouse learns two consecutive spatial discriminations (D1 and D2) in a four hole-board apparatus (45 × 45 × 30 cm) enclosed with gray Plexiglas walls. The floor of the hole-board was interchangeable (white and rough versus black and smooth). On the floor, four holes opening on a food cup (3-cm diameter × 2.5-cm depth) were located 6 cm away from the sidewalls. Photocells located into the holes allowed an automatic recording of the number of head-dips in each hole.
Fig. 1 a Contextual serial discrimination: at the acquisition phase, mice performed two consecutive spatial discrimination sessions varying by the color and texture of the floor, i.e., D1, discrimination 1, and D2, discrimination 2. For each discrimination session, only one out of the four holes of the apparatus was baited (hashed circles). […] One hour prior to acquisition and test phases, mice received a per os administration of the compounds or vehicle solution in a chamber placed in a room (room C) different from the one in which the behavioral experiments were conducted (room A). Subsequently, mice were submitted to the test phase in which they were repositioned on the floor of the first discrimination without any food pellet in the apparatus. b Two types of responses were calculated: (i) correct responses corresponding to head-dips into the hole baited at the acquisition of the first discrimination (D1), on the same floor context; (ii) interference responses corresponding to head-dips into the hole baited at the other (second) discrimination (D2). Both parameters allow calculation of the SCM score
Mice were partially food-deprived for 1 week prior to experimentation and were maintained on a 12 ± 2% loss of their body weight throughout behavioral testing to increase motivation for food reward. During the food deprivation phase, mice were handled daily to familiarize them with the experimenter.
During the acquisition session, mice were first placed at the center of the board in a plastic tube for 15 s and then learned two successive spatial discriminations (D1 and D2) for 6 min each and were each separated by a 2-min interval. Between two sessions, each mouse was placed in its home cage in an animal housing room. For D1, ten 20-mg pellets were available only in one of the four holes in the board. For D2, ten 20-mg pellets were located in the opposite symmetrical hole. The environmental spatial cues remained at the same place for D1 and D2. Within each group, the floors used for the first and second discrimination (D1 and D2) were counterbalanced at the acquisition phase from one mouse to the other. A minimal amount of eight pellets should be eaten per mouse at either D1 or D2 during the acquisition phase.
During memory testing, D1 and D2 discriminations were performed in independent groups of mice, being replaced either on the floor of D1 or of D2. The food-deprived mice were replaced either on the floor of D1 or on the floor of D2. In each case, mice were allowed to explore the apparatus freely and performance was assessed by measuring the exploration for each hole for 6 min without any pellets in the apparatus. During the procedure, photocells allowed measurement of the number of head dips in each hole. Different parameters were further calculated: % of correct responses (head-dips into the hole previously baited on the same floor context), % of interfering responses (head-dips into the hole previously baited on the other floor context), and % of errors (head-dips into the two holes never previously baited).

[2] = system: aged mice (22–24 months old); experiment: Radial maze working memory task; type: in vivo, mouse
Experimental: In the radial arm maze task, treatments were administered subcutaneously (s.c.) once a day 60 min prior to testing from the 2 days of habituation to the 12 days of memory testing.
The radial maze (Imetronic system, Pessac, France) was fully automated and enabled by video-tracking automatic testing and recording. Briefly, each mouse was separately assigned to six adjacent arms which were grouped into three pairs (A, B, C). These three pairs were presented repeatedly among the successive trials of each testing session. The location of the food reward varied in each pair according to an alternation rule among successive trials. Namely, among the two arms opened in a specific trial, the food was inserted in the arm which was not visited in the previous trial within the same pair. The mouse must therefore remember which of the two arms was visited in a specific trial until next presentation of the same pair, and so on in order to alternate its choice among successive presentations of any pair. At the beginning of each daily session, the mouse was placed in the central platform of the radial maze with all arms closed. One pair of arms only was opened at the beginning of each trial, and the mouse was required to visit one arm. The door of the non-chosen arm was closed as soon as the mouse reached the end of the chosen arm. The mouse was allowed to run back to the central platform of his own accord, and then, the door of the chosen arm was closed. The mouse remained in the central platform until the following trial (intertrial interval 10 s). Since three pairs were concurrently used, three specific arm visits must be kept in memory by the mouse until their utilization by using short-term working memory. After 2 days of free exploration in the maze (habituation), mice were submitted to 12 consecutive testing sessions: one session of 23 trials (3 “acquisition-only trials,” one by pair, and 20 “acquisition and test trials”) per day, i.e., a total of 276 trials (240 test trials).
Each session consisted of alternate presentations of pairs A, B, and C. The first three trials with each pair were acquisition trials (both arms rewarded). Each of the following trials was at the same time an acquisition trial (for the following trial with the same pair) and a test trial (for the arm visit made during the preceding trial with the same pair); the rewarded arm was the one that has not been visited on the preceding trial with the same pair. Memory demand varied across successive trials according to the retention interval RI (i.e., the number of intervening trials with other pairs between two successive presentations of the same pair). The retention interval for one specific arm visit (e.g., within pair A) depends on the number of concurring trials (i.e., with pairs B and C) occurring till next trial with the same pair (A). Indeed, such a variable amount of interposed trials proportionally increases the delay between acquisition and test and may also generate retroactive interference. There are five levels of retention interval: from 0, corresponding to “no interposed pair,” to 4, corresponding to a sequence of four interposed trials between n-1 and n trials.
During habituation, the time needed for visiting all six arms per session day was measured. During memory testing, memory performance was evaluated according to the percentage of correct alternation responses between successive trials with the same pair in three different manners.

In the case of `O=C1c2cc3nnn(CCc4cccc(F)c4)c(=O)c3cc2OCN1C1CC1` [S 47445], the “Episodic-like memory in object recognition” value (rats) is listed as “dose-related improvement”, the “Working-like memory in spontaneous alternation task” value (normal adult mice) is listed as “dose-related improvement” and the “Total number of explorations and % exploration of the baited hole, acquisition phase” value ([1]; Experiment 1 (study A and B), compounds alone, p> 0.10 in all analyses) is listed as “No significant between-groups difference”. For the same compound, the “Memory performance in the second discrimination (D2)” value ([1]; Experiment 1, S 47445 at all doses, donepezil at the active doses, versus middle-aged vehicle, data not shown) was “did not alter memory performance”, the “Total number of head-dips, test phase” value ([1]; Experiment 1, versus vehicles (p > 0.10 in all comparisons), data not shown) was “no significant effect” and the “Strength of contextual memory (SCM) score, first discrimination D1” value ([1]; S 47445 0.1 mg/kg p.o. daily 9 days) was 6.56%. For the same compound, the “Strength of contextual memory (SCM) score, first discrimination D1” value ([1]; S 47445 0.3 mg/kg p.o. daily 9 days) was 10.57%, the “SCM score (LSMeans ± SE LSMeans)” value ([1]; S 47445 0.1 mg/kg p.o. alone) was 5.1515 ± 7.7919% and the “SCM score (LSMeans ± SE LSMeans)” value ([1]; S 47445 0.3 mg/kg p.o. alone) was 11.7033 ± 7.7919%. The “Post hoc analysis of S 47445 effect on SCM score for all donepezil levels (Dunnett, versus vehicle group)” value ([1]; S 47445 0.03 mg/kg, all levels of donepezil pooled) was “+ (+p ≤ 0.050)”, the “SCM score of the second discrimination (D2), dose effect at pooled levels of the other drug” value ([1]; Supplemental data 2, S 47445 0.03–0.3 mg/kg p.o. (p=0.951), Donepezil 0.03 and 0.1 mg/kg (p=0.074)) was “no significant effect” and the “Overall memory performance (mean percentage of correct responses over 12 days)” value ([2]; S 47445 0.3 mg/kg s.c. once a day, aged mice, versus aged vehicle (p ≤ 0.05)) was “better memory performance as compared to aged vehicle-treated mice”. The “Performance as a function of retention interval (RI 0–4) versus chance level” value ([2]; S 47445 0.3 mg/kg s.c., aged mice (at least p ≤ 0.01)) was “remained significantly above chance level regardless the RI level”, the “Performance as a function of proactive interference” value ([2]; S 47445 0.3 mg/kg s.c., aged mice, data not shown) was “ameliorated performance whatever the level of proactive interference” and the “Performance as a function of retention interval (RI 0–4) versus chance level” value ([2]; all other groups (S 47445 0.1 and 1 mg/kg s.c.), aged mice) was “dropped to chance level above R1 = 1”.
